According to paper PMC4281712, “ATPase-dependent auto-phosphorylation of the open condensin hinge diminishes DNA binding” (Open Biology, 2014):

How the values were obtained:
[1] = molecular target: T1, Cut3–Cut14 (condensin SMC heterodimer; Cut3/SMC4–Cut14/SMC2) (Schizosaccharomyces pombe, UniProt P41003+P41004); experiment: inhibition of γ-32P labelling, autoradiography; assay type: biochemical; details: 1 mM nucleotide pre-incubated 5 min; ATP 8 nM hot, 50 nM cold; 30 min, 30 °C
T1 construct: full-length SMC heterodimer co-overproduced in S. pombe; C-terminal tags kept (Cut14-3HA-His6; Cut3 mutants 8Myc)
T1 sequence (P41004 1-1324): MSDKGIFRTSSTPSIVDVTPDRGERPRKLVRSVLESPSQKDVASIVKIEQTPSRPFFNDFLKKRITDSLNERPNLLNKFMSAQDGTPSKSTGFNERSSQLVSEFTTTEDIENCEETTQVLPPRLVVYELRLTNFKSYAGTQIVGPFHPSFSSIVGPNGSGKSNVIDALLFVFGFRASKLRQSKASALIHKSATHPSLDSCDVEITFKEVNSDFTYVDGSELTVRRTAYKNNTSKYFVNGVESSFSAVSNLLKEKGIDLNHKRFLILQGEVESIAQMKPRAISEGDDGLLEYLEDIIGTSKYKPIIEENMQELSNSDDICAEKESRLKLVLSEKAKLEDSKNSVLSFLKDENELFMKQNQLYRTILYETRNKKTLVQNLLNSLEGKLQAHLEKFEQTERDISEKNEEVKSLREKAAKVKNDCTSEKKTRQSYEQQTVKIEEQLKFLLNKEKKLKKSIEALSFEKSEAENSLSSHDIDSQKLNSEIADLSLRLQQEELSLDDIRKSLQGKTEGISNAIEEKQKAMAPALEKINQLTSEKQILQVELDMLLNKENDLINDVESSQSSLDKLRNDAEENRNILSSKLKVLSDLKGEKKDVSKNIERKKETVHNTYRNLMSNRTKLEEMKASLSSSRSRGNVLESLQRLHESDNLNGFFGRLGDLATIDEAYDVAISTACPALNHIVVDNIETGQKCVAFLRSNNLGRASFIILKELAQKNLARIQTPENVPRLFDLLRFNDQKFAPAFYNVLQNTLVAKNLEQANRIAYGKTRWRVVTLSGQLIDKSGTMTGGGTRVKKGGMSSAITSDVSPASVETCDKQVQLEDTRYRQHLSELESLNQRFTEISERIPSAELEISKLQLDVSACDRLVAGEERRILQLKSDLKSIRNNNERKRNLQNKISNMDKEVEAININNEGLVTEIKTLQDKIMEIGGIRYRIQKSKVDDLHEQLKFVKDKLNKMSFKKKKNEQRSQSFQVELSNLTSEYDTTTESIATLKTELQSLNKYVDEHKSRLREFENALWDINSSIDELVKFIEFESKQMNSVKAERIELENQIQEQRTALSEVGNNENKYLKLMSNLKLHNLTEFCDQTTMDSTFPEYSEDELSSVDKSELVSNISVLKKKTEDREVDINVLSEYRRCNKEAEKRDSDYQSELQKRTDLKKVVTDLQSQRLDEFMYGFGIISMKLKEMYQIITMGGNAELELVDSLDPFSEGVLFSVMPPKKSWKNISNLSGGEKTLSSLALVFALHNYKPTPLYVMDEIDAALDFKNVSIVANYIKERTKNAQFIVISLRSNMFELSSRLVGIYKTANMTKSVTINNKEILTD
T1 sequence (P41003 1-1172): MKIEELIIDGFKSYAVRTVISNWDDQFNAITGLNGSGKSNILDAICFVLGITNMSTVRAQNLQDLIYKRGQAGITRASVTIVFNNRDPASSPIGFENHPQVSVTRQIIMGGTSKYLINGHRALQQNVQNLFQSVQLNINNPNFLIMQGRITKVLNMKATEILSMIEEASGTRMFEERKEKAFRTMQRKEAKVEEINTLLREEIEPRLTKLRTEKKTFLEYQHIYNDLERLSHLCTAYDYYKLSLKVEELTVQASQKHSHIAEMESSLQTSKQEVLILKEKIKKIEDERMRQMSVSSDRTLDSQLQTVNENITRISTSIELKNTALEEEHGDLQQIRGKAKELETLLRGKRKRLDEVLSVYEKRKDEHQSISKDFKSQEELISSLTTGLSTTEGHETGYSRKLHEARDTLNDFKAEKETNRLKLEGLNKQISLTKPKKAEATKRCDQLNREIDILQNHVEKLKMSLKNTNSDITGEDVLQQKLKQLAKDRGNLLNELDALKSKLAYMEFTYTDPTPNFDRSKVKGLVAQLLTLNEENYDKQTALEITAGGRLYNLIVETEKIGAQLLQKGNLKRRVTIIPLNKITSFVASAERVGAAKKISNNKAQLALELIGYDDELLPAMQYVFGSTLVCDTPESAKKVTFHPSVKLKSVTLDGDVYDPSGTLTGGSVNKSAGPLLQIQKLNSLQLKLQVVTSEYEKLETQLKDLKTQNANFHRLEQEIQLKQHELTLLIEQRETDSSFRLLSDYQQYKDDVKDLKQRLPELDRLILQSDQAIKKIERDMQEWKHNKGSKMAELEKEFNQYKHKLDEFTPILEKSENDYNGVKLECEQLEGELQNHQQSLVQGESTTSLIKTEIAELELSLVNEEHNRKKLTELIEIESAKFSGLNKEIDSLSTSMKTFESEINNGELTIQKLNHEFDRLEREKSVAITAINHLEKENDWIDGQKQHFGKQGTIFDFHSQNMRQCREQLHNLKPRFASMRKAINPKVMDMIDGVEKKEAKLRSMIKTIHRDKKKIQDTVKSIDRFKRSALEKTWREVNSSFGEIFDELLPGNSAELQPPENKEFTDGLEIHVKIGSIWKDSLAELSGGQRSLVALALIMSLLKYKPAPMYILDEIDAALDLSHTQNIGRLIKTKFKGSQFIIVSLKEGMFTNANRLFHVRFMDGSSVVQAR

[2] = molecular target: T1, Cut3–Cut14 (condensin SMC heterodimer; Cut3/SMC4–Cut14/SMC2); experiment: thiophosphorylation, PNBM alkylation, anti-thiophosphate ester western blot; assay type: biochemical; details: covalent thiophosphoryl transfer to Cut3; 10 mM ATPγS

For `Nc1ncnc2c1ncn2[C@@H]1O[C@H](COP(=O)(O)OP(=O)(O)NP(=O)(O)O)[C@@H](O)[C@H]1O` [AMP-PNP], the “inhibition of γ-32P labelling, autoradiography” value [1] was “Some labelling occurred in an excess of AMP-PNP”.
With `Nc1ncnc2c1ncn2[C@@H]1O[C@H](COP(=O)(O)OP(=O)(O)OP(O)(O)=S)[C@@H](O)[C@H]1O` [ATPγS] the “thiophosphorylation, PNBM alkylation, anti-thiophosphate ester western blot” value [2] was “Antibody against ATPγS detected Cut3 protein in the heterodimer after incubation in the presence of ATPγS”.
